US12098139B2, “Chemokine receptor modulators and uses thereof” (RAPT Therapeutics, Inc., priority 2018, dated 2024)

What follows are molecules tested against T1, hCCR4 (Chem5-hCCR4 cells) (Homo sapiens, UniProt P51679) (assay: Calcium flux assay (CCL22-stimulated, FLIPR Calcium 6 dye)). Settings: Table 3, CCL22 1.5 nM, read-out: Potency (IC50).
T1 sequence (P51679 1-360): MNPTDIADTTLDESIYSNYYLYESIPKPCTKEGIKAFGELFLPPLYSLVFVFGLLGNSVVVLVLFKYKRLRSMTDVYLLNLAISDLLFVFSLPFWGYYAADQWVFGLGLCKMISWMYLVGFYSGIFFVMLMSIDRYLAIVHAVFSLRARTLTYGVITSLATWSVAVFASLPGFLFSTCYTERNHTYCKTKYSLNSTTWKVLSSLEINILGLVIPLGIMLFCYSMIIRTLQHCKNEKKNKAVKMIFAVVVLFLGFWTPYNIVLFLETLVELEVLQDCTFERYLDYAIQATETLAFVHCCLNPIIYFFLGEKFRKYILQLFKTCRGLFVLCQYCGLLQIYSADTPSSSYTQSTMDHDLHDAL
Type: cell-based
Protocol: Calcium Flux Assay. Compounds were evaluated in a calcium flux assay substantially performed as follows. Chem5-hCCR4 cells (EMD Millipore, Hayward, CA; HTS009C) were cultured under standard conditions and frozen in aliquots of 10×10^6 cells/mL. The day prior to compound testing, a vial was rapidly thawed and pipetted into 20 mL media (DMEM+10% FBS+1% Pen-Strep+1% L-glutamine). Cells were harvested by centrifugation and re-suspended in fresh culture medium. 25 μL of cell suspension was seeded into 384-well plates (Corning, Tewksbury, MA; CellBind with black wall/clear bottom). The plates were centrifuged at 300 g for 10 seconds and incubated overnight at 37° C. and 5% CO2. The day of compound testing, media was removed from the plates and 25 μL serum free media was added to each well. Plates were returned to the incubator for 2 h. 25 μL assay buffer (Hank's balanced salt solution+20 mM HEPES pH 7.4) containing FLIPR Calcium 6 dye (Molecular Devices, Sunnyvale, CA; #R8191) and probenecid (2.5 mM) was added to each well and incubated at 37° C. and 5% CO2 for 2 h. Compounds in DMSO were added to the plates using an HP D300e digital dispenser, and all wells were normalized to contain 0.25 μL (0.5%) DMSO. Plates were incubated for 1 hour at 37° C. and 5% CO2. CCL22 (Peprotech; Rockyhill, NJ) was diluted in assay buffer containing 0.1% BSA to 7.5 nM (corresponding to 5×EC80 of 1.5 nM).
Assay plates and working solution of CCL22 were transferred to the FlexStation plate reader (Molecular Devices) at 37° C. for 5 min of equilibration. Fluorescence recordings at 485 excitation/525 emission were performed at 2.5 second intervals. At t=16 seconds, 12.5 μL of CCL22 solution was added to each well and reads continued for 30 seconds at 2.5 second intervals. The minimum fluorescence (Fmin) was calculated by averaging the reads prior to ligand addition and the change in fluorescence (ΔF) was calculated by subtracting the Fmin from the average of the reads following ligand addition. The response ΔF/Fmin was plotted as a function of the compound concentration and the IC50 values were determined by non-linear regression analysis using a 4-parameter fit in either PRISM software (GraphPad; La Jolla, CA) or Dotmatics Browser.

SMILES	IC50 [nM]
C[C@@H](Nc1nc(N2CC([C@H]3CCCN(CCO)C3)C2)cnc1C#N)c1ccc(Cl)cc1Cl [Example 1, 3-(((R)-1-(2,4-dichlorophenyl)ethyl)amino)-5-(3-((R)-1-(2-hydroxyethyl)piperidin-3-yl)azetidin-1-yl)pyrazine-2-carbonitrile]	< 100
C[C@@H](Nc1cncc(N2CC([C@H]3CCCN(CCO)C3)C2)n1)c1ccc(Cl)cc1Cl [Example 2, 2-((R)-3-(1-(6-(((R)-1-(2,4-dichlorophenyl)ethyl)amino)pyrazin-2-yl)azetidin-3-yl)piperidin-1-yl)ethan-1-ol]	100 to 500
Cc1ncc(N2CC([C@H]3CCCN(CCO)C3)C2)nc1N[C@H](C)c1ccc(Cl)cc1Cl [Example 3, 2-((R)-3-(1-(6-(((R)-1-(2,4-dichlorophenyl)ethyl)amino)-5-methylpyrazin-2-yl)azetidin-3-yl)piperidin-1-yl)ethan-1-ol]	> 500
C[C@@H](Nc1cnc(C#N)c(N2CC([C@H]3CCCN([C@H]4C[C@@H](C(=O)O)C4)C3)C2)n1)c1ccc(Cl)cc1Cl [Example 4, (1S,3s)-3-((R)-3-(1-(3-cyano-6-(((R)-1-(2,4-dichlorophenyl)ethyl)amino)pyrazin-2-yl)azetidin-3-yl)piperidin-1-yl)cyclobutane-1-carboxylic acid]	> 500
C[C@@H](Nc1nc(N2CC([C@H]3CCCN([C@H]4C[C@@H](C(=O)O)C4)C3)C2)cnc1C#N)c1ccc(Cl)cc1Cl [Example 5, (1S,3s)-3-((R)-3-(1-(5-cyano-6-(((R)-1-(2,4-dichlorophenyl)ethyl)amino)pyrazin-2-yl)azetidin-3-yl)piperidin-1-yl)cyclobutane-1-carboxylic acid]	100 to 500
C[C@@H](Nc1nc(N2CC([C@H]3CCCN(C4CCCC4C(=O)O)C3)C2)cnc1C#N)c1ccc(Cl)cc1Cl (stereo partly drawn) [Example 6, 2-((R)-3-(1-(5-cyano-6-(((R)-1-(2,4-dichlorophenyl)ethyl)amino)pyrazin-2-yl)azetidin-3-yl)piperidin-1-yl)cyclopentane-1-carboxylic acid]	100 to 500
C[C@@H](Nc1nc(N2CC([C@H]3CCCN(CCO)C3)C2)cnc1C#N)c1ccc(S(C)(=O)=O)cc1Cl [Example 7, 3-(((R)-1-(2-chloro-4-(methylsulfonyl)phenyl)ethyl)amino)-5-(3-((R)-1-(2-hydroxyethyl)piperidin-3-yl)azetidin-1-yl)pyrazine-2-carbonitrile]	> 500
C[C@@H](Nc1nc(N2CC([C@H]3CCCN([C@H]4C[C@@H](C(=O)O)C4)C3)C2)ncc1Cl)c1ccc(Cl)cc1Cl [Example 8, (1S,3s)-3-((R)-3-(1-(5-chloro-4-(((R)-1-(2,4-dichlorophenyl)ethyl)amino)pyrimidin-2-yl)azetidin-3-yl)piperidin-1-yl)cyclobutane-1-carboxylic acid]	< 100
C[C@@H](Nc1nc(N2CC([C@H]3CCCN([C@H]4C[C@@H](C(=O)O)C4)C3)C2)ncc1Br)c1ccc(Cl)cc1Cl [Example 9, (1S,3s)-3-((R)-3-(1-(5-bromo-4-(((R)-1-(2,4-dichlorophenyl)ethyl)amino)pyrimidin-2-yl)azetidin-3-yl)piperidin-1-yl)cyclobutane-1-carboxylic acid]	< 100
C[C@@H](Nc1nc(N2CC([C@H]3CCCN(CCO)C3)C2)ncc1Cl)c1ccc(Cl)cc1Cl [Example 10, 2-((R)-3-(1-(5-chloro-4-(((R)-1-(2,4-dichlorophenyl)ethyl)amino)pyrimidin-2-yl)azetidin-3-yl)piperidin-1-yl)ethan-1-ol]	< 100

Same assay, conditions: Table 4, CCL22 1.5 nM, read-out: Potency (IC50)

SMILES	IC50 [nM]
C[C@@H](Nc1cnc(C#N)c(N2CC([C@H]3CCCN(C4CC(C)(C(=O)O)C4)C3)C2)n1)c1ccc(Cl)cc1Cl (single isomer, unassigned) [Example 52]	> 500

Same assay, conditions: Table 5, CCL22 1.5 nM, read-out: Potency (IC50)

SMILES	IC50 [nM]
C[C@@H](Nc1nc(N2CC([C@H]3CCCN(C4CC(C)(C(=O)O)C4)C3)C2)ncc1C1CC1)c1ccc(Cl)cc1Cl (single isomer, unassigned) [Example 54]	< 100
Cc1cc2c(N[C@H](C)c3ccc(Cl)cc3Cl)nc(N3CC([C@H]4CCCN(C5CC(C)(C(=O)O)C5)C4)C3)nc2s1 (single isomer, unassigned) [Example 67, trifluoroacetic acid]	< 100
C[C@@H](Nc1nc(N2CC([C@H]3CCCN(C4CC(C)(C(=O)O)C4)C3)C2)ncc1CO)c1ccc(Cl)cc1Cl (single isomer, unassigned) [Example 68]	< 100
C[C@@H](Nc1nc(N2CC([C@H]3CCCN(C4CC(C)(C(=O)O)C4)C3)C2)nc2nc[nH]c12)c1ccc(Cl)cc1Cl (single isomer, unassigned) [Example 69]	100 to 500
C[C@@H](Nc1nc(N2CC([C@H]3CCCN(C4CC(C)(C(=O)O)C4)C3)C2)nc2scnc12)c1ccc(Cl)cc1Cl (single isomer, unassigned) [Example 71, trifluoroacetic acid]	< 100
C[C@@H](Nc1nc(N2CC([C@H]3CCCN(C4CC(C)(C(=O)O)C4)C3)C2)nc2cc[nH]c12)c1ccc(Cl)cc1Cl (single isomer, unassigned) [Example 72, trifluoroacetic acid]	< 100
Cc1csc2nc(N3CC([C@H]4CCCN(C5CC(C)(C(=O)O)C5)C4)C3)nc(N[C@H](C)c3ccc(Cl)cc3Cl)c12 (single isomer, unassigned) [Example 74, trifluoroacetic acid]	< 100
C[C@@H](Nc1nc(N2CC([C@H]3CCCN(C4CC(C)(C(=O)O)C4)C3)C2)nc2[nH]ccc12)c1ccc(Cl)cc1Cl (single isomer, unassigned) [Example 75, trifluoroacetic acid]	< 100
CCc1nc(N2CC([C@H]3CCCN(C4CC(C)(C(=O)O)C4)C3)C2)nc(N[C@H](C)c2ccc(Cl)cc2Cl)c1Cl (single isomer, unassigned) [Example 77]	< 100
CC(=O)c1cnc(N2CC([C@H]3CCCN(C4CC(C)(C(=O)O)C4)C3)C2)nc1N[C@H](C)c1ccc(Cl)cc1Cl (single isomer, unassigned) [Example 78]	< 100
C[C@@H](Nc1cc(C2CC2)nc(N2CC([C@H]3CCCN(C4CC(C)(C(=O)O)C4)C3)C2)n1)c1ccc(Cl)cc1Cl (single isomer, unassigned) [Example 80]	< 100
C[C@@H](Nc1nc(N2CC([C@H]3CCCN(C4CC(C)(C(=O)O)C4)C3)C2)nc2ccn(C)c12)c1ccc(Cl)cc1Cl (single isomer, unassigned) [Example 81, trifluoroacetic acid]	< 100
COc1cc(N[C@H](C)c2ccc(Cl)cc2Cl)nc(N2CC([C@H]3CCCN(C4CC(C)(C(=O)O)C4)C3)C2)n1 (single isomer, unassigned) [Example 82]	> 500
COc1cnc(N2CC([C@H]3CCCN(C4CC(C)(C(=O)O)C4)C3)C2)nc1N[C@H](C)c1ccc(Cl)cc1Cl (single isomer, unassigned) [Example 83]	< 100
C[C@@H](Nc1nc(N2CC([C@H]3CCCN(C4CC(C)(C(=O)O)C4)C3)C2)nc(CO)c1Cl)c1ccc(Cl)cc1Cl (single isomer, unassigned) [Example 86]	< 100
C[C@@H](Nc1nc(N2CC([C@H]3CCCN(C4CC(C)(C(=O)O)C4)C3)C2)nc(CF)c1Cl)c1ccc(Cl)cc1Cl (single isomer, unassigned) [Example 89]	< 100
Cc1cc(N[C@H](C)c2ccc(Cl)cc2Cl)nc(N2CC([C@H]3CCCN(C4CC(C)(C(=O)O)C4)C3)C2)n1 (single isomer, unassigned) [Example 90]	< 100
Cc1nc(N2CC([C@H]3CCCN(C4CC(C)(C(=O)O)C4)C3)C2)nc(N[C@H](C)c2ccc(Cl)cc2Cl)c1F (single isomer, unassigned) [Example 91, trifluoroacetic acid]	< 100
CCc1cc(N[C@H](C)c2ccc(Cl)cc2Cl)nc(N2CC([C@H]3CCCN(C4CC(C)(C(=O)O)C4)C3)C2)n1 (single isomer, unassigned) [Example 92]	< 100
